From ChEMBL document CHEMBL1201862, “PubChem BioAssay data set” (2004)
Calls of active or inactive are those of the source. Rule as the data show it, for most assays here: actives have a measured EC50 and inactives only a lower limit.

Key:
[1] = viability of uninfected HEp-2 cells – cell-based, HTS, cytotoxicity control for RSV inhibitor project, dose response (AID 2410); assay type: functional; conditions: human respiratory syncytial virus
[2] = Luminescence Cell-Based Dose Confirmation HTS to Identify Activators of 5'UTR Stem-Loop Driven Alpha-Synuclein mRNA Translation in H4 Neuroglioblastoma Cells. [Related pubchem assays: 1829 (Project Summary), 1814 (Primary HTS)]; assay type: functional
[3] = Luminescence Cell-Based Dose Response HTS to Identify Activators of Luciferase Translation or Activity in H4 […] Cells. [Related pubchem assays: 1829 (Project Summary), 1814 (Primary HTS)]; assay type: functional
[4] = system: H4; test: Luminescence Cell-Based Dose Response HTS to Identify Activators of 5'UTR Stem-Loop Driven Prion Protein mRNA Translation in H4 Neuroglioblastoma Cells. [Related pubchem assays: 1829 (Project Summary), 1814 (Primary HTS)]; assay type: functional; conditions: Homo sapiens
[5] = molecular target: T1, RNA-binding protein pos-1 (Caenorhabditis elegans, UniProt G5EF15); test: disruptors of C. elegans POS-1 RNA interaction – biochemical, fluorescence polarization, dose response (AID 1964);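 also: purified POS-1 fused to maltose binding protein made in E. coli; potency of compounds blocking POS-1 binding to fluorescent RNA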
T1 sequence (G5EF15 whole entry): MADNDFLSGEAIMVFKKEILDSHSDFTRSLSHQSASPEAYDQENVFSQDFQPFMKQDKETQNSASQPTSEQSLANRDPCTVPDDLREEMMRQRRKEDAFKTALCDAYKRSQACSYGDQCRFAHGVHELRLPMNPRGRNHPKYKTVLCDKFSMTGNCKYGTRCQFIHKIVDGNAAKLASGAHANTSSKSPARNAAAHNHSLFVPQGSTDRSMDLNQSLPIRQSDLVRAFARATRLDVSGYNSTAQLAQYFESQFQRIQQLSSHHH

[6] = molecular target: T2, Zinc finger protein mex-5 (Caenorhabditis elegans, UniProt Q9XUB2); test: potency of MEX-5 RNA-binding blockers – biochemical, C. elegans, fluorescence polarization, dose response (AID 1960)
T2 sequence (Q9XUB2 whole entry): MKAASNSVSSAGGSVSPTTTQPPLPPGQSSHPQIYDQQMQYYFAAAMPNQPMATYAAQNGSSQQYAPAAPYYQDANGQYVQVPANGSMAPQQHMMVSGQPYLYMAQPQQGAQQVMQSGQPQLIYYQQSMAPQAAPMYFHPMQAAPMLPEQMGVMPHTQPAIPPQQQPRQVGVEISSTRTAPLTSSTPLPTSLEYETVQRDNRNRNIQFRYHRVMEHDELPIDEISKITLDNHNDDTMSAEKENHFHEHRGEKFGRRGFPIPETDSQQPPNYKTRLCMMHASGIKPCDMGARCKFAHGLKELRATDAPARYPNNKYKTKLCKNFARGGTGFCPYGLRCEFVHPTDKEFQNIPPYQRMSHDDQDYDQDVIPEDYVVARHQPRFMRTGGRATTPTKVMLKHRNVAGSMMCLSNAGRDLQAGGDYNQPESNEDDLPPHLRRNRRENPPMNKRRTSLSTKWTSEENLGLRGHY

[7] = Trypanosoma cruzi growth suppression in host cells – NIH3T3 host cells, beta-gal luminescence, confirmation (AID 2044); assay type: functional, cell-based;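 also: intracellular parasites grown in NIH/3T3 mouse fibroblasts as host cells; luminescent beta-galactosidase reporter signal from transgenic T. cruzi replicating inside host cells; inhibitors lower the luminescence signal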
[8] = NIH3T3 cell viability loss – ATP luminescence, mouse fibroblasts, counter-screen, dose response (AID 2010); assay type: functional, cell-based;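 also: cells exposed to compound for about 90 hours before reading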
[9] = molecular target: Luciferin 4-monooxygenase (Photinus pyralis, UniProt P08659); test: inhibition of purified Photinus pyralis luciferase – biochemical, luminescence, dose response (AID 1891)
Sequence of Luciferin 4-monooxygenase (P08659 whole entry): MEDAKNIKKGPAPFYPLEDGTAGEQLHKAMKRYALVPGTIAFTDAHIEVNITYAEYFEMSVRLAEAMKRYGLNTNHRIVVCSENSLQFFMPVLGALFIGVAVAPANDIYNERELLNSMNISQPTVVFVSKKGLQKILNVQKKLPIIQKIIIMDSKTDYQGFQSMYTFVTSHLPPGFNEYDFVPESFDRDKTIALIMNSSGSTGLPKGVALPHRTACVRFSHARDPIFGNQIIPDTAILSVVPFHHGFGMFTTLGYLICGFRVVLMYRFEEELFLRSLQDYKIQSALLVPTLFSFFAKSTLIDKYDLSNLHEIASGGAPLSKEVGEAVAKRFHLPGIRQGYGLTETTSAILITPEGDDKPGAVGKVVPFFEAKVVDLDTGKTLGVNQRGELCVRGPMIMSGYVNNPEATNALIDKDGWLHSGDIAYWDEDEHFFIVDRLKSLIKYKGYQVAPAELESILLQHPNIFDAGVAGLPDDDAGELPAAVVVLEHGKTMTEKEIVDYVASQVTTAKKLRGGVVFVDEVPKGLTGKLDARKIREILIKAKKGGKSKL

[10] = Luminescence Cell-Based Dose Confirmation HTS to Identify Inhibitors of Platelet Dense Granule Release. [Related pubchem assays: 1663 (Primary HTS), 1678 (Summary of Project)]; assay type: functional
[11] = molecular target: FAD-linked sulfhydryl oxidase ALR (Homo sapiens, UniProt P55789); test: ALR-catalysed DTT oxidation blockers – biochemical, H2O2 detection, luminescence, cherry-pick, dose response (AID 493248)
Sequence of FAD-linked sulfhydryl oxidase ALR (P55789 whole entry): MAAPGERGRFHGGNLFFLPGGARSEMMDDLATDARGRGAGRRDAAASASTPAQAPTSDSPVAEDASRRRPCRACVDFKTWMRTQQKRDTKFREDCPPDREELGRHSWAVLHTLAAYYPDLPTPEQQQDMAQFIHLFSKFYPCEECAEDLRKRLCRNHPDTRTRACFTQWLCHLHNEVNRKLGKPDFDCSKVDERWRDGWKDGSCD

[12] = system: H9c2; test: cells; assay type: functional, cell-based; conditions: Rattus norvegicus, H9c2, Myocardium;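 also: confirmatory concentration-response retest of ultra-high-throughput screening hits for modulation of myocardial damage; cell death induced by hydrogen peroxide oxidative stress; compound pretreatment for 60 min then peroxide exposure for 2 h; potency is for protecting the cells against peroxide damage rather than for killing them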
[13] = molecular target: T3, Replicative DNA helicase DnaB (Mycobacterium tuberculosis, UniProt P9WMR3); test: DnaB intein splicing inhibitors, dose response, biochemical, cell-free fluorescence (AID 449749); assay type: functional
T3 sequence (P9WMR3 whole entry): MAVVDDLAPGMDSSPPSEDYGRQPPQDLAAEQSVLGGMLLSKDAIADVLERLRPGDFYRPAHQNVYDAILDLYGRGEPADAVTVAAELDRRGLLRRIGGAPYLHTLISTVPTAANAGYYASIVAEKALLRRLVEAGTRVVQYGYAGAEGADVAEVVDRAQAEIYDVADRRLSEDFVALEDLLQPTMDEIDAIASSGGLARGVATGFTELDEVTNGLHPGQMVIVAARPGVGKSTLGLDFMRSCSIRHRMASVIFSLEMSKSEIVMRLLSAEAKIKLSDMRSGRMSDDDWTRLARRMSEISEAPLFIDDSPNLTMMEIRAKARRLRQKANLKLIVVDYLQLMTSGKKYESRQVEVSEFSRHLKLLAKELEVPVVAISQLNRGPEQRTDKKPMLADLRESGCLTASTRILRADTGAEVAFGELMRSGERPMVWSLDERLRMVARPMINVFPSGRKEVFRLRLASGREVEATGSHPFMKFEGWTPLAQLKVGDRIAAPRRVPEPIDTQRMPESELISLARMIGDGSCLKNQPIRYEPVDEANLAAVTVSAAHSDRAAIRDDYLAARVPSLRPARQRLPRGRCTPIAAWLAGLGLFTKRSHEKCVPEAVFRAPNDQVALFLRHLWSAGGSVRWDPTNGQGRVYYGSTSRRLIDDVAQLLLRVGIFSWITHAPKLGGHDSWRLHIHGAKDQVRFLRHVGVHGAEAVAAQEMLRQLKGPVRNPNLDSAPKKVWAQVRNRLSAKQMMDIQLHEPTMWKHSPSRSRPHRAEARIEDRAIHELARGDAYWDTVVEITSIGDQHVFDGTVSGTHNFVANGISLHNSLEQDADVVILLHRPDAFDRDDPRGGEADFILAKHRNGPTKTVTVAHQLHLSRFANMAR

[14] = molecular target: T4, Protein RecA (Mycobacterium tuberculosis, UniProt P9WHJ3); test: Fluorescence Cell-Free Homogeneous Dose Retest to Identify Inhibitors of RecA-Intein Splicing Activity. [Related pubchem assays (depositor defined):AID2097, AID2223, AID489010, AID492950]; assay type: functional
T4 sequence (P9WHJ3 whole entry): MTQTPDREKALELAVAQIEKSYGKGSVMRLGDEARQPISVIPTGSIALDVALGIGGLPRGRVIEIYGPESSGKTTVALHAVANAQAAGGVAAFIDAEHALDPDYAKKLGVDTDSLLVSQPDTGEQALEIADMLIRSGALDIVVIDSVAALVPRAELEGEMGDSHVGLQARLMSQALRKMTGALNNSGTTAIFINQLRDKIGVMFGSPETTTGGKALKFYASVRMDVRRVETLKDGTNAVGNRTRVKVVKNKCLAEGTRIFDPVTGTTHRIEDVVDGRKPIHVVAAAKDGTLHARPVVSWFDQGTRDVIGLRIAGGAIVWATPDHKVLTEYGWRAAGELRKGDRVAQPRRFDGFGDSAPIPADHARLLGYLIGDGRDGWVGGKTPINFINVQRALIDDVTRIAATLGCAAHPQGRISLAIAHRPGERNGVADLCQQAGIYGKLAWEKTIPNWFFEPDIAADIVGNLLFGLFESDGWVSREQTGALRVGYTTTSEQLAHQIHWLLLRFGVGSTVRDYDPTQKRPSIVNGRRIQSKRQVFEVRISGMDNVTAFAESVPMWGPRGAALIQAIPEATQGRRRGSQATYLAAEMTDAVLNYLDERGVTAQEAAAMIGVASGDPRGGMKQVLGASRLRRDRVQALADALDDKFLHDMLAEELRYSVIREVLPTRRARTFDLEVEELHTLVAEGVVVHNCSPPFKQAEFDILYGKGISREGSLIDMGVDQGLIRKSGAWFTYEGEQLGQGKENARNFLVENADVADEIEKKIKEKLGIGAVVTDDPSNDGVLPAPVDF

[15] = molecular target: T5, Fatty acid synthase (Homo sapiens, UniProt P49327); test: inhibition of human FAS-TE enzyme activity – biochemical, endpoint fluorescence intensity, uHTS hits, dose response (AID 624327); assay type: functional;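 also: fluorescence from hydrolysis of an O-methyl fluorescein acyl ester substrate by the enzyme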
T5 sequence (P49327 whole entry): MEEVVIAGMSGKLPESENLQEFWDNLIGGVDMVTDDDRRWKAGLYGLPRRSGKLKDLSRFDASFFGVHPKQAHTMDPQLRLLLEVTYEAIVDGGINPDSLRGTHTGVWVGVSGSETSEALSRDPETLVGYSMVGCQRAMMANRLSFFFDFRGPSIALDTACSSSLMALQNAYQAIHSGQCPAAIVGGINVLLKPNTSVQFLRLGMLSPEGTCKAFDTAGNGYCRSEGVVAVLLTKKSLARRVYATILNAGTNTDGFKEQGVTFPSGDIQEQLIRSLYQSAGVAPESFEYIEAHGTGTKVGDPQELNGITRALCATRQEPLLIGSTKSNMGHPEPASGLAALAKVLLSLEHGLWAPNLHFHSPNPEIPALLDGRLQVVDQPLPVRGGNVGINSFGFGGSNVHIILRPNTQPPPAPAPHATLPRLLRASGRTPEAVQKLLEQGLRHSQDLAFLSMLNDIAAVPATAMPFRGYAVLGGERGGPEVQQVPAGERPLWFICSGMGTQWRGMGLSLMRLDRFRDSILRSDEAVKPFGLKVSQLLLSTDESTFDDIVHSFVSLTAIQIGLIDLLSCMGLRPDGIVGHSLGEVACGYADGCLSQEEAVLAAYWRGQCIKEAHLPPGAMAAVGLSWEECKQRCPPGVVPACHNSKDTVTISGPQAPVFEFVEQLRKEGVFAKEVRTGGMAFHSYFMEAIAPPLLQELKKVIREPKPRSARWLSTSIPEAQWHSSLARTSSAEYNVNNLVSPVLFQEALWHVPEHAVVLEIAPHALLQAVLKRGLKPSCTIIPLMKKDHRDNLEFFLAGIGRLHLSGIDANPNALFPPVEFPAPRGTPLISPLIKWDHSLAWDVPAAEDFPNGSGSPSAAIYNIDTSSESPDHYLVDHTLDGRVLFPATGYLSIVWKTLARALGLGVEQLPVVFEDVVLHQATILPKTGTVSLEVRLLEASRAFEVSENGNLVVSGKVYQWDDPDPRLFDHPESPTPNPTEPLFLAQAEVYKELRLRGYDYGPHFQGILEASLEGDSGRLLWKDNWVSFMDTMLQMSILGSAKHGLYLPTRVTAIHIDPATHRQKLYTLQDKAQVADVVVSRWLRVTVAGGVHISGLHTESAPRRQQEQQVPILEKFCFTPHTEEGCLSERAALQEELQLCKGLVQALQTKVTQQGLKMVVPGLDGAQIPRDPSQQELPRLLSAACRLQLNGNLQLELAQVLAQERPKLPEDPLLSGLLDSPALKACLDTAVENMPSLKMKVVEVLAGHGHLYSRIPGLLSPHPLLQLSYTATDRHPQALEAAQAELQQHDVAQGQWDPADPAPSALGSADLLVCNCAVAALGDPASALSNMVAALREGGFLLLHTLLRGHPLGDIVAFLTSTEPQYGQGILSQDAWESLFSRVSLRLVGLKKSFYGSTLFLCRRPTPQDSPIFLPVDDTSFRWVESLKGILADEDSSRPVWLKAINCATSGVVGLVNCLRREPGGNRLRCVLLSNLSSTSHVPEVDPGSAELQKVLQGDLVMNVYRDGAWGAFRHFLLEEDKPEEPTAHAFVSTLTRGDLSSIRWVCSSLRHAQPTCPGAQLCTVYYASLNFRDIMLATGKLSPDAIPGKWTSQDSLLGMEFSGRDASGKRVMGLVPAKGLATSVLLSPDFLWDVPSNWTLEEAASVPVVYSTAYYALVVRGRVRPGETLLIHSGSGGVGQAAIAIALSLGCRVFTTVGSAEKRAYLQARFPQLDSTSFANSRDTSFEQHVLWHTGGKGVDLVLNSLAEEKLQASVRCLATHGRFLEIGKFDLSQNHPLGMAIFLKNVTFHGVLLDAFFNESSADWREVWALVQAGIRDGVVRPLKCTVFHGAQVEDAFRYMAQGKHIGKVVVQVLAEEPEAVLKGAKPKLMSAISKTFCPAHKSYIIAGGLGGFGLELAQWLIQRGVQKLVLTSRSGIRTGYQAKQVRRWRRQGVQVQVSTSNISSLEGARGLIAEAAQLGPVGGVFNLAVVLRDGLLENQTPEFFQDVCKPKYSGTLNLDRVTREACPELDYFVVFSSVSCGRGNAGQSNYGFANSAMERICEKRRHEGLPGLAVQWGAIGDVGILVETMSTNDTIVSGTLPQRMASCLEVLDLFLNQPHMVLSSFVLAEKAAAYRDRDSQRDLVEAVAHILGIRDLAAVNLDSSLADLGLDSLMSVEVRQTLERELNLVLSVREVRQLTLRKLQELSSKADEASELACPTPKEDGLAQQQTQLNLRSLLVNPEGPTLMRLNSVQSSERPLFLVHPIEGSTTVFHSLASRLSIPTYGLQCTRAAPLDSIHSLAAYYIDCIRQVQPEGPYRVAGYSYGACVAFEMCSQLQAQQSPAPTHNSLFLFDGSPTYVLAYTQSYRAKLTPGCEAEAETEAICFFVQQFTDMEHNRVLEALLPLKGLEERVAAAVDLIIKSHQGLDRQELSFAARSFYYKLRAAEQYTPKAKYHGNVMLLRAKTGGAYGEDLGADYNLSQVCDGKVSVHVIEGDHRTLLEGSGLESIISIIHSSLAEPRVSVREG

[16] = molecular target: T5, Fatty acid synthase; test: inhibition of human FAS-TE enzyme activity – biochemical, kinetic fluorescence intensity, dose response (AID 624326); assay type: functional;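 also: rate of fluorescence rise from hydrolysis of a fluorogenic O-methyl fluorescein ester substrate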

Compound	EC50 [2]	EC50 [3]	EC50 [4]	also measured
Cc1ccc(-n2c(C)nc3c(cnn3-c3ccc(C)c(C)c3)c2=O)cc1C	10.2 µM (active)	8.78 µM (active)	43.9 µM (active)	CC50 [1]: 48.5 µM (active)
COc1ccccc1N1CC(C(=O)Nc2nnc(SCC(=O)NC(C)C)s2)CC1=O (stereo unspecified)				EC50 [5]: > 300 µM (not active); EC50 [6]: > 300 µM (not active)
O=C(N=Nc1c(O)n(C2OC(=O)c3ccccc32)c2ccccc12)c1ccco1 (stereo unspecified)	11.5 µM (active)	11.4 µM (active)	15 µM (active)	
O=C(Nc1cccc(Cl)c1)c1ccc2ncsc2c1	4.28 µM (active)	91.3 µM (active)	34.6 µM (active)	
COc1cc(C2NC(S)=NC(C)=C2C(=O)Nc2ccc(C)cc2)ccc1O (stereo unspecified)	15.1 µM (active)	22.4 µM (active)	21.8 µM (active)	
Cc1c2c(nc3ccccc13)CCC(C(C)(C)C)C2 (stereo unspecified)	26.6 µM (active)	4.26 µM (active)	12.7 µM (active)	CC50 [1]: 44.4 µM (active); EC50 [7]: 3.67 µM (active); EC50 [8]: > 60 µM (not active)
CN(C)c1ccc(NC(=O)CN2CCN(S(=O)(=O)c3cc(Cl)ccc3Cl)CC2)cc1				EC50 [9]: > 112 µM (not active); EC50 [10]: > 112 µM (not active); AC50 [11]: 2.31 µM (active)
COc1cccc(N2C(=O)/C(=C/c3ccc(C)o3)C(=O)NC2=S)c1				EC50 [5]: > 300 µM (not active); EC50 [6]: 44.5 µM (active)
CCc1nc(N2CCN(C(=O)c3ccco3)CC2)c2oc3ccccc3c2n1				EC50 [9]: > 112 µM (not active); EC50 [10]: > 112 µM (not active); IC50 [12]: > 79 µM (inactive)
O=C(COc1ccccc1[N+](=O)[O-])Nc1ccc(NC(=O)c2cc3ccccc3o2)cc1	> 120 µM (not active)	> 120 µM (not active)	> 120 µM (not active)	
CN1C(=O)C(=Cc2c[nH]c3ccc(Br)cc23)C(=O)N(C)C1=O				EC50 [5]: > 300 µM (not active); EC50 [6]: > 300 µM (not active)
N#CC1=C(N)C(C#N)(C#N)C(c2cccnc2)C2CN(C(=O)OCc3ccccc3)CC=C12 (stereo unspecified)				EC50 [9]: > 112 µM (not active); EC50 [10]: 15.6 µM (active); AC50 [13]: > 380 µM (inactive); EC50 [14]: 2.59 µM (active)
CN1CCc2c(sc3nc(SCC(=O)NCc4ccco4)n(-c4ccccc4)c(=O)c23)C1	17.9 µM (active)	10.2 µM (active)	25.5 µM (active)	
CCOc1cccc2cc(C(=O)NCCC3=CCCCC3)c(=O)oc12	7.15 µM (active)	> 120 µM (not active)	25 µM (active)	IC50 [15]: 3.95 µM (active); IC50 [16]: 4.15 µM (active)
CCOC(=O)C1=C(Nc2ccccc2)S/C(=C\c2cn(CC(=O)N3CCCC3)c3ccccc23)C1=O				EC50 [5]: 47.5 µM (active); EC50 [6]: 26.2 µM (active)
c1ccc(-c2ccc(-c3n[nH]cc3CN3CCC(N4CCSCC4)CC3)cc2)cc1	14.4 µM (active)	15.8 µM (active)	12.4 µM (active)	
